US10167262B2, “Herbicidal substituted 3-arylpyrazoles” (FMC CORPORATION, priority 2014, dated 2019)

Key:
Format in all cases: in vivo
[1] = tested on: chickweed (common chickweed, Stellaria media); assay: Test C postemergence greenhouse test, plant response rating 0-100; settings: for Plant response rating, Chickweed: scale 0 to 100
Description: (§1) At the same time, plants selected from these crop and weed species and also winter barley (Hordeum vulgare), bermudagrass (Cynodon dactylon), downy bromegrass (Bromus tectorum), canarygrass (Phalaris minor), cocklebur (common cocklebur, Xanthium strumarium), woolly cupgrass (Eriochloa villosa), deadnettle (henbit deadnettle, Lamium amplexicaule), green foxtail (Setaria viridis), goosegrass (Eleusine indica), surinam grass (Brachiaria decumbens), windgrass (Apera spica-venti), chickweed (common chickweed, Stellaria media), kochia (Kochia scoparia), and wild oat (Avena fatua), were planted in pots containing Redi-Earth® planting medium (Scotts Company, 14111 Scottslawn Road, Marysville, Ohio 43041) comprising spaghnum peat moss, vermiculite, wetting agent and starter nutrients and treated with postemergence applications of test chemicals formulated in the same manner. Plants ranged in height from 2 to 18 cm (1- to 4-leaf stage) for postemergence treatments. Treated plants and controls were maintained in a greenhouse for 13 to 15 days, after which time all species were compared to controls and visually evaluated. Plant response ratings, summarized in Table C, are based on a scale of 0 to 100 where 0 is no effect and 100 is complete control. A dash (-) response means no test result.

[2] = tested on: wild oat (Avena fatua); assay: as above; settings: for Plant response rating, Oat, Wild: scale 0 to 100
Description: as §1

[3] = tested on: kochia (Kochia scoparia); assay: as above; settings: for Plant response rating, Kochia: scale 0 to 100
Description: as §1

[4] = tested on: morningglory (Ipomoea coccinea); assay: Test C pre-/postemergence greenhouse test, plant response rating 0-100; settings: Postemergence; for Plant response rating, Morningglory: scale 0 to 100
Summary of the method: (§2)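 After treatment, pots stay in the greenhouse 13–15 days before each species is compared with untreated controls and given a 0–100 visual score. Preemergence seeds are in loam blended with sand; postemergence plants, 1–4 leaves, are in peat-based medium.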

[5] = tested on: galium (catchweed bedstraw, Galium aparine); assay: as above; settings: Postemergence; for Plant response rating, Galium: scale 0 to 100
Summary of the method: as §2

Row | Compound | Plant response rating (0 to 100), Chickweed ([1]; 62 g ai/ha) | Plant response rating (0 to 100), Chickweed ([1]; 125 g ai/ha) | Plant response rating, Chickweed ([1]; 250 g ai/ha) | Plant response rating, Chickweed ([1]; 500 g ai/ha) | Plant response rating (0 to 100), Oat, Wild ([2]; 62 g ai/ha) | Plant response rating (0 to 100), Oat, Wild ([2]; 125 g ai/ha) | Plant response rating, Oat, Wild ([2]; 250 g ai/ha) | Plant response rating, Oat, Wild ([2]; 500 g ai/ha) | Plant response rating (0 to 100), Kochia ([3]; 62 g ai/ha) | Plant response rating (0 to 100), Kochia ([3]; 125 g ai/ha) | Plant response rating, Kochia ([3]; 250 g ai/ha) | Plant response rating, Kochia ([3]; 500 g ai/ha) | Plant response rating (0 to 100), Morningglory ([4]; 62 g ai/ha) | Plant response rating (0 to 100), Morningglory ([4]; 125 g ai/ha) | Plant response rating, Morningglory ([4]; 250 g ai/ha) | Plant response rating, Morningglory ([4]; 500 g ai/ha) | Plant response rating (0 to 100), Galium ([5]; 62 g ai/ha) | Plant response rating (0 to 100), Galium ([5]; 125 g ai/ha) | Plant response rating, Galium ([5]; 250 g ai/ha) | Plant response rating, Galium ([5]; 500 g ai/ha)
1 | Cn1cc(C(=O)c2cccs2)c(-c2cc(Cl)cc(Cl)c2)n1 [Compound 17] | 10 | 65 | 85 | 85 | 0 | 0 | 0 | 0 | 30 | 50 | 50 | 55 | 5 | 5 | 10 | 15 | 0 | 0 | 0 | 20
2 | CCn1cc(C(=O)c2cccs2)c(-c2cc(Cl)cc(Cl)c2)n1 [Compound 18] | 50 | 80 | 98 | 100 | 0 | 0 | 0 | 0 | 20 | 40 | 45 | 60 | 5 | 10 | 20 | 45 | 0 | 0 | 0 | 35
